Measured values published in patent US12410160B2 (Gilead Sciences, Inc., priority 2021, dated 2025).

Columns and labels:
[1] = target: human KHK-C (Homo sapiens (Human), UniProt P50053); assay: KHK Biochemical Assay (IC50), ADP-Glo, KHK-C; conditions: ADP-Glo; average of at least two separate assays
Summary of the method: (§1)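 His-tagged enzyme expressed in BL21 (DE3), Ni-NTA purified. Compounds, serially diluted 1:3 in DMSO, pre-incubated 30 min with enzyme in 50 mM Hepes pH 7.4, 140 mM KCl, 5 mM MgCl2, 0.01% Triton-X, then ATP and fructose added; 4 h at room temperature. ADP formation read by ADP-Glo luminescence.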

[2] = target: human KHK-A (Homo sapiens (Human), UniProt P50053); assay: KHK Biochemical Assay (IC50), ADP-Glo, KHK-A; conditions: ADP-Glo; average of at least two separate assays
Summary of the method: as §1

Chain of human KHK-A (P50053 other isoform, or with tags, fused parts or gaps): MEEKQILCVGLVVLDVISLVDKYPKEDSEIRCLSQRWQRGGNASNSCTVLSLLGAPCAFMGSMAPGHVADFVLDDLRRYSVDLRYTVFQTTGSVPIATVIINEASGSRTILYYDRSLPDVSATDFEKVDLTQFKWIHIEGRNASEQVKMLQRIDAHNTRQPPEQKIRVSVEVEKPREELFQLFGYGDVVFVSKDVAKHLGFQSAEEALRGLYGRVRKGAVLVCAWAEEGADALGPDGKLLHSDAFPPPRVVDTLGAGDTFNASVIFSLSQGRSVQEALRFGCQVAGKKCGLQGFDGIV
Chain of human KHK-C (P50053 whole entry): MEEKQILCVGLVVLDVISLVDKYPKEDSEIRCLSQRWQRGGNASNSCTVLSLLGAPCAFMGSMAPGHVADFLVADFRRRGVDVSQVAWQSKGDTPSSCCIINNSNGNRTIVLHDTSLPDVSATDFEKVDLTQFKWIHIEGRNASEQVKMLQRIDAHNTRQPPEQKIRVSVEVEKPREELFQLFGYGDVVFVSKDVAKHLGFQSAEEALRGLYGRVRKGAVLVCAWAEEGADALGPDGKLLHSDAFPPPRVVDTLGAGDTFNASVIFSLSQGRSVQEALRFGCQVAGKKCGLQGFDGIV

Compound	IC50 [1] [nM]	IC50 [2] [nM]
C[C@H]1CCN1c1nc2c(c(-c3ccc4[nH]nc(C(F)(F)F)c4c3)n1)CCC2 [Example 243, 5-[2-[(2S)-2-methylazetidin-1-yl]-6,7-dihydro-5H-cyclopenta[d]pyrimidin-4-yl]-3-(trifluoromethyl)-1H-indazole]	> 5000	> 5000
C[C@H]1CCN1c1nc2c(c(-c3cnn(C(F)F)c3)n1)CCC2 [Example 259, 4-[1-(difluoromethyl)pyrazol-4-yl]-2-[(2S)-2-methylazetidin-1-yl]-6,7-dihydro-5H-cyclopenta[d]pyrimidine]	312	380
C[C@H]1CCN1c1nc2c(c(-c3ccccc3O)n1)CCC2 [Example 260, 2-[2-[(2S)-2-methylazetidin-1-yl]-6,7-dihydro-5H-cyclopenta[d]pyrimidin-4-yl]phenol]	633	746
C[C@H]1CCN1c1nc2c(c(-c3ccc4c(c3)NC(=O)C4(C)C)n1)CCC2 [Example 264, 3,3-dimethyl-6-[2-[(2S)-2-methylazetidin-1-yl]-6,7-dihydro-5H-cyclopenta[d]pyrimidin-4-yl]indolin-2-one]	646	758
C[C@H]1CCN1c1nc(-c2ccns2)c2c(n1)C1CC1C2 (stereo partly drawn) [Example 273, 5-(2-((S)-2-methylazetidin-1-yl)-5,5a,6,6a-tetrahydrocyclopropa[4,5]cyclopenta[1,241]pyrimidin-4-yl)isothiazole]	532	433
C[C@H]1CCN1c1nc2c(c(-c3cccc(-c4ccn[nH]4)c3)n1)CCC2 [Example 279, (S)-4-(3-(1H-pyrazol-5-yl)phenyl)-2-(2-methylazetidin-1-yl)-6,7-dihydro-5H-cyclopenta[d]pyrimidine]	201	159
C[C@H]1[C@H](O)CN1c1nc2c(c(-c3cccc(S(N)(=O)=O)c3)n1)CCOC2 [Example 286]	753	718
C[C@H]1CCN1c1nc2c(c(-c3ccc(C(=O)N(C)C)cc3)n1)CCC2 [Example 293, (S)—N,N-dimethyl-4-(2-(2-methylazetidin-1-yl)-6,7-dihydro-5H-cyclopenta[d]pyrimidin-4-yl)benzamide]	200	153
C[C@H]1CCN1c1nc2c(c(-c3ccc(C4(NC(=O)OC(C)(C)C)CC4)cc3)n1)CCC2 [Example 294, (S)-tert-butyl (1-(4-(2-(2-methylazetidin-1-yl)-6,7-dihydro-5H-cyclopenta[d]pyrimidin-4-yl)phenyl)cyclopropyl)carbamate]	3400	3890
C[C@H]1CCN1c1nc2c(c(-c3ccc(C(=O)Nc4ccccc4)cc3)n1)CCC2 [Example 296, (S)-4-(2-(2-methylazetidin-1-yl)-6,7-dihydro-5H-cyclopenta[d]pyrimidin-4-yl)-N-phenylbenzamide]	3000	2090
C[C@H]1CCN1c1nc2c(c(-c3cccc(C(=O)Nc4ccccc4)c3)n1)CCC2 [Example 297, (S)-3-(2-(2-methylazetidin-1-yl)-6,7-dihydro-5H-cyclopenta[d]pyrimidin-4-yl)-N-phenylbenzamide]	2840	847
C[C@H]1CCN1c1nc2c(c(-c3cc(C(N)=O)cc([N+](=O)[O-])c3)n1)CCC2 [Example 298, (S)-3-(2-(2-methylazetidin-1-yl)-6,7-dihydro-5H-cyclopenta[d]pyrimidin-4-yl)-5-nitrobenzamide]	247	374
C[C@H]1CCN1c1nc2c(c(-c3ccc(C4(N5CCN(C)CC5)CC4)cc3)n1)CCC2 [Example 302, (S)-2-(2-methylazetidin-1-yl)-4-(4-(1-(4-methylpiperazin-1-yl)cyclopropyl)phenyl)-6,7-dihydro-5H-cyclopenta[d]pyrimidine]	849	636
C[C@H]1CCN1c1nc2c(c(-c3ccc(C4(N5CCOCC5)CC4)cc3)n1)CCC2 [Example 304, (S)-4-(1-(4-(2-(2-methylazetidin-1-yl)-6,7-dihydro-5H-cyclopenta[d]pyrimidin-4-yl)phenyl)cyclopropyl)morpholine]	786	983
Cc1ncc(-c2nc(N3CC[C@@H]3C)nc3c2CCC3)o1 [Example 325, 2-methyl-5-[2-[(2S)-2-methylazetidin-1-yl]-6,7-dihydro-5H-cyclopenta[d]pyrimidin-4-yl]oxazole]	452	440
Cc1cc(-c2nc(N3CC[C@@H]3C)nc3c2CCC3)on1 [Example 326, 3-methyl-5-[2-[(2S)-2-methylazetidin-1-yl]-6,7-dihydro-5H-cyclopenta[d]pyrimidin-4-yl]isoxazole]	228	231

Now those with a lower IC50 [1], led by results:

IC50 [1] [nM]	IC50 [2] [nM]	Compound
188	122	CNC(=O)c1ccc(-c2nc(N3CC[C@@H]3C)nc3c2CCC3)cn1 [Example 280, (S)—N-methyl-5-(2-(2-methylazetidin-1-yl)-6,7-dihydro-5H-cyclopenta[d]pyrimidin-4-yl)picolinamide]
153	133	C[C@H]1CCN1c1nc2c(c(-c3cccc(O)c3)n1)CCC2 [Example 261, 3-[2-[(2S)-2-methylazetidin-1-yl]-6,7-dihydro-5H-cyclopenta[d]pyrimidin-4-yl]phenol]
141	180	C[C@H]1CCN1c1nc2c(c(-c3ccc(O)cc3)n1)CCC2 [Example 262, 4-[2-[(2S)-2-methylazetidin-1-yl]-6,7-dihydro-5H-cyclopenta[d]pyrimidin-4-yl]phenol]
98	141	C[C@H]1CCN1c1nc2c(c(-c3ccc(N4CCOCC4)nc3)n1)CCC2 [Example 291, (S)-4-(5-(2-(2-methylazetidin-1-yl)-6,7-dihydro-5H-cyclopenta[d]pyrimidin-4-yl)pyridin-2-yl)morpholine]
89.1	65.7	CNC(=O)c1ccc(-c2nc(N3CC[C@@H]3C)nc3c2CCC3)cc1 [Example 292, (S)—N-methyl-4-(2-(2-methylazetidin-1-yl)-6,7-dihydro-5H-cyclopenta[d]pyrimidin-4-yl)benzamide]
48.2	42.6	C[C@H]1CCN1c1nc2c(c(-c3ccnc(NCCO)c3)n1)CCC2 [Example 282]
45.6	47.3	C[C@H]1CCN1c1nc2c(c(-c3cc(N)cc(C(N)=O)c3)n1)CCC2 [Example 299, (S)-3-amino-5-(2-(2-methylazetidin-1-yl)-6,7-dihydro-5H-cyclopenta[d]pyrimidin-4-yl)benzamide]
38.2	96.8	Cc1cc(-c2nc(N3CC[C@@H]3C)nc3c2CCC3)sn1 [Example 327, 3-methyl-5-[2-[(2S)-2-methylazetidin-1-yl]-6,7-dihydro-5H-cyclopenta[d]pyrimidin-4-yl]isothiazole]
33.6	42.8	C[C@H]1CCN1c1nc2c(c(-c3cc(NS(C)(=O)=O)cc(C(N)=O)c3)n1)CCC2 [Example 300, (S)-3-(2-(2-methylazetidin-1-yl)-6,7-dihydro-5H-cyclopenta[d]pyrimidin-4-yl)-5-(methylsulfonamido)benzamide]
3.7	9.9	C[C@H]1[C@H](O)CN1c1nc2c(c(-c3ccc(C4(N)CC4)cc3)n1)CCC2 [Example 301, (2S,3R)-1-(4-(4-(1-aminocyclopropyl)phenyl)-6,7-dihydro-5H-cyclopenta[d]pyrimidin-2-yl)-2-methylazetidin-3-ol]
